Like-named read-outs stand apart in the source and are kept apart here.
Key:
[1] = PK study of Form A of Compound I in rats; type: in vivo; conditions: male, Sprague-Dawley, rat, plasma, po, 75 mg/kg, single PO dose of 75 mg/kg, male SD rats
Procedure: The pharmacokinetics (PK) properties of Form A of Compound I and Form I of Compound II were determined in a series of comprehensive experiments in preclinical species including Sprague-Dawley rats, beagle dogs, cynomolgus monkeys. In those studies, the Form A crystalline salt of Compound I (and Form I crystalline salt of Compound II) was formulated in saline, 0.5% MC in saline or other commonly used suitable formulation vehicles to give a clear solution or as a suspension or a paste depending on the concentration intended to reach and the choice of vehicles. Dosing was by oral gavage. Blood samples were drawn and placed into individual tube containing K2EDTA. Blood samples were put on ice and centrifuged (2000 g for 5 minutes at 4° C.) to obtain plasma within 15 minutes after collection. Plasma samples were stored at approximately −80° C. freezer until analysis. For most of these analyses, Compound I (and Compound II) and the internal standard (IS) were extracted from rat, monkey or dog plasma by protein precipitation, and the extract was evaporated, reconstituted and analyzed using HPLC with tandem mass spectrometric detection (HPLC-MS/MS), see examples for further details. Calibration was accomplished by weighted linear regression of the ratio of the peak area of analyte to that of the added internal standard (IS). For the validated assay in rat and monkey EDTA plasma, the Lower Limit of Quantitation (LLOQ) for both compound 1 and 2 was 5.00 ng/mL, and the assay was linear from 5.00-1,000 ng/mL. PK parameters were calculated by non-compartmental analysis using WinNonlin (versions 4.1 through 6.1). 1) Weighed 922.80 mg of Form A of Compound I (equivalent to 824.603 mg of free base) into a clean tube. 2) Added 54.974 mL of 0.5% methylcellulose in saline into the tube containing the Form A of Compound I, vortexed for 3-5 min and sonicated for 10-15 min. The dosing solution was a light yellow and clear solution. Sprague Dawley rats, ˜7-9 weeks old and weighing ˜210-270 g, were given the above dosing solution at 5 mL/kg. […] Sample Preparation for Analysis: An aliquot of 30 μL of plasma sample was mixed with 30 μL of the IS (200 ng/mL), then mixed with 150 μL ACN for protein precipitation. The mixture was vortexed for 2 min and centrifuged at 12000 rpm for 5 min. An aliquot of 1 μL of supernatant was injected onto HPLC-MS/MS, if no further dilution was needed. To prepare a 10-fold diluted plasma samples, an aliquot of 10 μL plasma sample was mixed with 90 μL blank plasma to obtain the diluted plasma samples. The extraction procedure for diluted samples was as the same as that used for the non-diluted samples. • Compound Concentration Quantitation: • Instrument HPLC-MS/MS-12 (API4000), on positive ionization mode, ESI+ • HPLC Conditions Mobile Phase A: H2O—0.025% formic acid (FA)—1 mM NH4OAc • Mobile Phase B: MeOH—0.025% FA—1 mM NH4OAc Pharmacokinetic analysis was done using the WinNonlin software (Version 5.3, Pharsight Corporation, California, USA). Any concentration data under LLOQ (LLOQ=1.00 ng/mL in rat plasma and 3.00 ng/mL in rat liver homogenate) were replaced with “BQL”.

[2] = Moisture sorption/desorption (DVS) of Compound I Form A; type: physicochemical; conditions: 25° C.
Procedure: Dynamic vapor sorption/desorption (DVS) data were collected on a VTI SGA-100 Vapor Sorption Analyzer. NaCl and PVP were used as calibration standards. Samples were not dried prior to analysis. Adsorption and desorption data were collected over a range from 5 to 95% RH at 10% RH increments under a nitrogen purge. The equilibrium criterion used for analysis was less than 0.0100% weight change in 5 minutes with a maximum equilibration time of 3 hours. Data were not corrected for the initial moisture content of the samples. Moisture sorption/desorption data were collected for the sample on a VTI […] Vapor Sorption Analyzer. NaCl and PVP were used as calibration standards. Samples were vacuum dried prior to analysis. Sorption and desorption data were collected over a range from 5 to 95% RH at 10% RH increments under a nitrogen purge. The equilibrium criterion used for analysis was less than 0.0100% weight change in 5 minutes with a maximum equilibration time of 3 hours. Data were not corrected for the initial moisture content of the samples. FIG. 15 illustrates the graphed Weight % vs. Relative Humidity.

[3] = Mean (N = 3), read-out: mean plasma concentration
[4] = Rat #1, read-out: plasma concentration
[5] = Rat #2, read-out: plasma concentration
[6] = Rat #3, read-out: plasma concentration
[7] = with respect to the initial sample weight

## COC(=O)N[C@H](C(=O)N1CCC[C@H]1c1ncc(-c2ccc3cc(-c4ccc5nc([C@@H]6CCCN6C(=O)[C@@H](NC(=O)OC)C(C)C)[nH]c5c4)ccc3c2)[nH]1)C(C)C [Form A of Compound I]
[1]; [3]
  concentration at 1 h: 5970 ng/mL
  concentration at 2 h: 7430 ng/mL
  concentration at 3 h: 8340 ng/mL
  concentration at 4 h: 3930 ng/mL
  concentration at 6 h: 2850 ng/mL
  concentration at 8 h: 531 ng/mL
  concentration at 12 h: 176 ng/mL
  concentration at 24 h: 8.07 ng/mL
[1]; [4]
  concentration at 1 h: 6210 ng/mL
  concentration at 2 h: 8030 ng/mL
  concentration at 3 h: 5670 ng/mL
  concentration at 4 h: 3680 ng/mL
  concentration at 6 h: 2780 ng/mL
  concentration at 8 h: 498 ng/mL
  concentration at 12 h: 188 ng/mL
  concentration at 24 h: 8.12 ng/mL
[1]; [5]
  concentration at 1 h: 5480 ng/mL
  concentration at 2 h: 7890 ng/mL
  concentration at 3 h: 8060 ng/mL
  concentration at 4 h: 5170 ng/mL
  concentration at 6 h: 3370 ng/mL
  concentration at 8 h: 704 ng/mL
  concentration at 12 h: 277 ng/mL
  concentration at 24 h: 7.95 ng/mL
[1]; [6]
  concentration at 1 h: 6230 ng/mL
  concentration at 2 h: 6380 ng/mL
  concentration at 3 h: 11300 ng/mL
  concentration at 4 h: 2930 ng/mL
  concentration at 6 h: 2400 ng/mL
  concentration at 8 h: 390 ng/mL
  concentration at 12 h: 63.6 ng/mL
  concentration at 24 h: 8.15 ng/mL
[2]; desorption, Samp RH 5.17 %
  Weight % chg: 0.673%
[2]; desorption, Samp RH 14.73 %
  Weight % chg: 2.010%
[2]; desorption, Samp RH 25.12 %
  Weight % chg: 3.025%
[2]; desorption, Samp RH 35.13 %
  Weight % chg: 3.870%
[2]; desorption, Samp RH 44.99 %
  Weight % chg: 4.590%
[2]; desorption, Samp RH 55.17 %
  Weight % chg: 5.352%
[2]; desorption, Samp RH 65.08 %
  Weight % chg: 5.993%
[2]; desorption, Samp RH 75.27 %
  Weight % chg: 6.741%
[2]; desorption, Samp RH 85.24 %
  Weight % chg: 7.855%
[2]; sorption, Samp RH 5.09 %
  Weight % chg: −0.187%
[2]; sorption, Samp RH 14.73 %
  Weight % chg: 0.065%
[2]; sorption, Samp RH 24.93 %
  Weight % chg: 0.303%
[2]; sorption, Samp RH 34.87 %
  Weight % chg: 0.521%
[2]; sorption, Samp RH 44.91 %
  Weight % chg: 0.780%
[2]; sorption, Samp RH 54.80 %
  Weight % chg: 1.082%
[2]; sorption, Samp RH 64.95 %
  Weight % chg: 1.458%
[2]; sorption, Samp RH 74.71 %
  Weight % chg: 1.868%
[2]; sorption, Samp RH 84.57 %
  Weight % chg: 2.502%
[2]; sorption, Samp RH 94.86 %
  Weight % chg: 10.824%
[2]; [7]
  % wt change upon equilibration at 5% RH: −0.187 % wt
  % wt gain from 5%-85% RH: 2.689 % wt
  % wt gain from 85%-95% RH: 8.322 % wt
  % wt lost from 95%-5% RH: 10.151 % wt
